According to ChEMBL document CHEMBL3621082, “Rational design of proteinprotein interaction inhibitors” (Medchemcomm, 2015):

Key:
Neuropilin-1 = Neuropilin-1 (Homo sapiens, UniProt O14786); assay: Binding affinity to NRP1 (unknown origin) assessed as reduction in […]VEGFA (165) protein interaction
[1] = Antiproliferative activity against breast cancer cells (unknown origin); format: functional, cell-based; settings: Cancer cell lines
[2] = Binding affinity to IFNalpha (unknown origin) assessed as reduction in IFNalpha/IFNAR2 interaction; parameters: species or system Homo sapiens
[3] = Inhibition of HIV1 gp41; parameters: species or system Human immunodeficiency virus 1
MCF7 = assay: Cytotoxicity against human MCF7 cells; format: functional, cell-based
[4] = biological target: T1, Urokinase plasminogen activator surface receptor (Homo sapiens, UniProt Q03405); assay: Binding affinity to uPAR (unknown origin) assessed as reduction in uPA-uPAR protein interaction
T1 sequence (Q03405 whole entry): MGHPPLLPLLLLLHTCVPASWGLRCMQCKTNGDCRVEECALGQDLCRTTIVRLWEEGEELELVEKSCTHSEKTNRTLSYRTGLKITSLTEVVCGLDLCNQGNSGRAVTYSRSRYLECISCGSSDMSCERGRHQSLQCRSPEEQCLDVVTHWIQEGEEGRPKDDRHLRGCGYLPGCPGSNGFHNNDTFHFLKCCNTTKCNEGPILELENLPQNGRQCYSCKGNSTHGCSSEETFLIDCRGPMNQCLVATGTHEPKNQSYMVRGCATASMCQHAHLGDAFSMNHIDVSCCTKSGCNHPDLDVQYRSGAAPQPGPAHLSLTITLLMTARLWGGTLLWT

[5] = biological target: T1, Urokinase plasminogen activator surface receptor; assay: Binding affinity to uPAR (unknown origin)
[6] = biological target: Tumour suppressor p53/oncoprotein Mdm2 (Homo sapiens, UniProt P04637+Q00987); assay: Inhibition of MDM2/p53 (unknown origin) interaction by fluorescence polarization assay; format: protein assay
Chain of Tumour suppressor p53/oncoprotein Mdm2 (P04637 whole entry): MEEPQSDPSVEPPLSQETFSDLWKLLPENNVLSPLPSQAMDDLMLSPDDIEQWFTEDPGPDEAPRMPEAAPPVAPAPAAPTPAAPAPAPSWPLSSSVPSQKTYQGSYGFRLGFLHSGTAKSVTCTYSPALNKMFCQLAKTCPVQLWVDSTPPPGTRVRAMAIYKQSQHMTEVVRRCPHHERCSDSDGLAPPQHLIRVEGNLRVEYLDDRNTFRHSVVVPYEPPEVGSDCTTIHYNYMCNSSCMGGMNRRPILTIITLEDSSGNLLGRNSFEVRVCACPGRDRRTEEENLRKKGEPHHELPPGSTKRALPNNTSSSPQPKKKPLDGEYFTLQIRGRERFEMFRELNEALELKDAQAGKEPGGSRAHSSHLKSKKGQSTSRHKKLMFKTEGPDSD
Chain of Tumour suppressor p53/oncoprotein Mdm2 (Q00987 whole entry): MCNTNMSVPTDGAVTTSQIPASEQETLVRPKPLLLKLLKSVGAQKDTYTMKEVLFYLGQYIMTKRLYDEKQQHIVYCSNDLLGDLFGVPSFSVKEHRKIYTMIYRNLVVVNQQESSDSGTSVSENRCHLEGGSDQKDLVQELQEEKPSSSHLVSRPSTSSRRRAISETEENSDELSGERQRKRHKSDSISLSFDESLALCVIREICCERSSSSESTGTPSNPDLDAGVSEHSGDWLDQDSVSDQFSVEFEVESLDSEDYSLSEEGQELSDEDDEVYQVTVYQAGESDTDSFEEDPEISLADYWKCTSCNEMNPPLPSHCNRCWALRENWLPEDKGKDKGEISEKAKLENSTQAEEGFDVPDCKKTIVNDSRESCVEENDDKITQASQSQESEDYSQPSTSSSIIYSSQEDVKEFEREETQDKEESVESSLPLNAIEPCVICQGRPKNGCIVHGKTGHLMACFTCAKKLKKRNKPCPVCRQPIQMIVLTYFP

Alpha-crystallin B chain = biological target: T2, Alpha-crystallin B chain (Homo sapiens, UniProt P02511); assay: Binding affinity to CRYAB (unknown origin) assessed as reduction in CRYAB-VEGFA protein interaction
T2 sequence (P02511 whole entry): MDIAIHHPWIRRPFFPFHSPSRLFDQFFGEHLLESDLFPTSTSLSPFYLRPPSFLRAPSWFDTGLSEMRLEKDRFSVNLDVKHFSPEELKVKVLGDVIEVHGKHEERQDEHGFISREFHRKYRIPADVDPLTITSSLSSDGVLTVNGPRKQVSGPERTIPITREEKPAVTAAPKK

[7] = biological target: Tumour suppressor protein p53/Mdm4 (Homo sapiens, UniProt O15151+P04637); assay: Inhibition of MDMX/p53 (unknown origin) interaction; format: protein assay
Chain of Tumour suppressor protein p53/Mdm4 (P04637 whole entry): as the sequence (P04637 whole entry) above
Chain of Tumour suppressor protein p53/Mdm4 (O15151 whole entry): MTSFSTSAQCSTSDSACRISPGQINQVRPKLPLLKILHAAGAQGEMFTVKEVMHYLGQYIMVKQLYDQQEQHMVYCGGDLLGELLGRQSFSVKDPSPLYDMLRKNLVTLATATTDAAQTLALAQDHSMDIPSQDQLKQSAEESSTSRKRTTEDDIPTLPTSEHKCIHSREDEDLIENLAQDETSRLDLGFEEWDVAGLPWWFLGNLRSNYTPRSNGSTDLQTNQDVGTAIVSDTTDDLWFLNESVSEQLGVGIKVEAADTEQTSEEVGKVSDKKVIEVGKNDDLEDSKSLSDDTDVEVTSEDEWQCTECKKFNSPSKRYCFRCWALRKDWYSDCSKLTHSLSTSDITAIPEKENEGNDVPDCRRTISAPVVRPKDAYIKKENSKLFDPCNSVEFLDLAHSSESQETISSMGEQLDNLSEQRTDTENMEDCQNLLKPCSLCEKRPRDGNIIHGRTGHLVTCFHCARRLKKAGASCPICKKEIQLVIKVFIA

Keap1/Nrf2 = Keap1/Nrf2 (Homo sapiens, UniProt Q14145+Q16236); assay: Inhibition of Nrf2/Keap1 (unknown origin) protein interaction by fluorescence anisotropy method; format: protein assay
Chain of Keap1/Nrf2 (Q16236 whole entry): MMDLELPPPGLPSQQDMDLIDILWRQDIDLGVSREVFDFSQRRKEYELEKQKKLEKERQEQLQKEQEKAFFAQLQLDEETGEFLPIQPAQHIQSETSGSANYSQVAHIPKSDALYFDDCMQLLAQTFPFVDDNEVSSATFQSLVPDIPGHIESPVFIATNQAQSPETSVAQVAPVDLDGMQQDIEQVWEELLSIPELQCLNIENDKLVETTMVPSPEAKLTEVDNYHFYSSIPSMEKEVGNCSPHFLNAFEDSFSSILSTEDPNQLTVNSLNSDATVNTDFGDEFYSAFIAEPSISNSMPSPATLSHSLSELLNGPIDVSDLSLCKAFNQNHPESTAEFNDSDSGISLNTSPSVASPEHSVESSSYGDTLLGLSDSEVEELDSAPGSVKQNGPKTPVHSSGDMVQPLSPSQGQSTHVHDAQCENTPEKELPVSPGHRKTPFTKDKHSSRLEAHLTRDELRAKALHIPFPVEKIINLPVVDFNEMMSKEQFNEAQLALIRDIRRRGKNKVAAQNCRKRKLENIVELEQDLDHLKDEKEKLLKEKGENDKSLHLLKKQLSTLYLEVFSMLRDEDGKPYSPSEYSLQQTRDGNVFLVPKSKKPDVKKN
Chain of Keap1/Nrf2 (Q14145 whole entry): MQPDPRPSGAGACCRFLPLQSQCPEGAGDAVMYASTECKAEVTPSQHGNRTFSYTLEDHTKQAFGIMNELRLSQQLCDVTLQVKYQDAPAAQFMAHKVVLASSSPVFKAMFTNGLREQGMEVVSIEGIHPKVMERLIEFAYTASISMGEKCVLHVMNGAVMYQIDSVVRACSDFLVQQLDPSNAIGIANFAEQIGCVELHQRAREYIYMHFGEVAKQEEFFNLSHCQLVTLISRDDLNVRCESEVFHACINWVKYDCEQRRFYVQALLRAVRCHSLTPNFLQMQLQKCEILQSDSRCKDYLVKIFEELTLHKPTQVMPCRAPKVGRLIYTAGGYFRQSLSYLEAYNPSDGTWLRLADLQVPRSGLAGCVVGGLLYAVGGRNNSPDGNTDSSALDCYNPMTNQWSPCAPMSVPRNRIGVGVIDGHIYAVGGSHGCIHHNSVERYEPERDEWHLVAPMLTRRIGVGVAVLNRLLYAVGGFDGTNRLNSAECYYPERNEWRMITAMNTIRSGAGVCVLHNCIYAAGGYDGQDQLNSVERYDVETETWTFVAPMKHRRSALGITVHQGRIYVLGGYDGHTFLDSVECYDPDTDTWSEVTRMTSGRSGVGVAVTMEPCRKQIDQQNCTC

Annexin A2/S100-A10 = Annexin A2/S100-A10 (Homo sapiens, UniProt P07355+P60903); assay: Inhibition of Annexin A2/Protein S100-A10 (unknown origin) protein interaction by competitive fluorescent binding assay
Chain of Annexin A2/S100-A10 (P07355 whole entry): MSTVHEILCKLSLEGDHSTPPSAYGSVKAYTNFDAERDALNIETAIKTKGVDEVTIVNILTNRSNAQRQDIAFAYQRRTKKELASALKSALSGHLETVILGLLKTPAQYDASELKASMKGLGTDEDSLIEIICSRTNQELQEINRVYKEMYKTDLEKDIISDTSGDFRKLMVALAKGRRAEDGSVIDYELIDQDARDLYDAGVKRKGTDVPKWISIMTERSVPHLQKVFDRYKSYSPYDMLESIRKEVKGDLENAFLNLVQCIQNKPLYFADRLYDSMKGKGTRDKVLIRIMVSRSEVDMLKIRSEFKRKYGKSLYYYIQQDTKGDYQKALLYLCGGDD
Chain of Annexin A2/S100-A10 (P60903 whole entry): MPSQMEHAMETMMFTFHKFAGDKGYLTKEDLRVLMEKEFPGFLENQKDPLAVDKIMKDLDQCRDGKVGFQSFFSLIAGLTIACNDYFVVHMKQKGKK

Chain of Neuropilin-1 (O14786 whole entry): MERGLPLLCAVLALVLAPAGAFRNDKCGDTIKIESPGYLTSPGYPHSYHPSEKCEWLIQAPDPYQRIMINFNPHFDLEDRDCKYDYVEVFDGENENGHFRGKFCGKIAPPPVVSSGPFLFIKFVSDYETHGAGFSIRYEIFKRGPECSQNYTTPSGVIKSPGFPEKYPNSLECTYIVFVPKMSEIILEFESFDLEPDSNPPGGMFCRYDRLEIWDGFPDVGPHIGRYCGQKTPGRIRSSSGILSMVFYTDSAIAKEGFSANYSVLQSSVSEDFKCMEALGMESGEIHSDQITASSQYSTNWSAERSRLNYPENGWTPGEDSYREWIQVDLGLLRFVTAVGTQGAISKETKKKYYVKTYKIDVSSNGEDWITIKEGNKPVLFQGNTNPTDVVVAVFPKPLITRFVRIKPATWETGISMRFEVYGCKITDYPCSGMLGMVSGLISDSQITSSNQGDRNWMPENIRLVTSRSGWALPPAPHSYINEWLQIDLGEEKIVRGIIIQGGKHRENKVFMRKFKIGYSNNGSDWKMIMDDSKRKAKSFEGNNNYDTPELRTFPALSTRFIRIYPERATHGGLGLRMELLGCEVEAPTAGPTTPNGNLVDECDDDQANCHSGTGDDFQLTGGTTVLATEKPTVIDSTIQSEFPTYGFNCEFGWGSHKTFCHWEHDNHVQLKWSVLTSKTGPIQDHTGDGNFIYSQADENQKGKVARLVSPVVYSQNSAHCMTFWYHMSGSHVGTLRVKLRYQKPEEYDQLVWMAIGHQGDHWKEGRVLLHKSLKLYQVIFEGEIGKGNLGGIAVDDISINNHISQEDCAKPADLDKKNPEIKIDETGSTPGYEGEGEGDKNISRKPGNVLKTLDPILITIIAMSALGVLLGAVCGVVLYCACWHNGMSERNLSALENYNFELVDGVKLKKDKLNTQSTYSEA

Structure (SMILES): O=C(NC(=S)Nc1cccc(-c2nc3ccccc3[nH]2)c1)c1ccc2c(c1)OCCO2
- IC50 (Neuropilin-1): 9.3 µM
- IC50 [1]: 0.2 µM

Structure (SMILES): CNCc1ccccc1Cc1cccc2ccccc12
- IC50 [2]: 4 µM

Structure (SMILES): CC(C)C[C@H](NC(=O)c1ccc(NC(=O)[C@@H](N)Cc2c[nH]c3ccccc23)c(OCCc2c[nH]c3ccccc23)c1)C(=O)O
- Ki [3]: 1.5 µM

Structure (SMILES): COC(=O)[C@@H](CCCCNC(=O)OC(C)(C)C)NC(=O)CI
- EC50 (MCF7): 0.64 µM

Structure (SMILES): C[C@H]1C[C@H](C)CN(c2cc(Nc3ccccc3C(=O)O)c3c4c(onc24)-c2ccccc2C3=O)C1
- IC50 [4]: 10 µM
- Kd [5]: 0.31 µM

Structure (SMILES): O=C(O)c1ccccc1/N=N/C(=N\Nc1cc(S(=O)(=O)O)ccc1O)c1ccccc1
- Ki [6]: 0.18 µM

Structure (SMILES): CC(CC(=O)O)C(N)C(=O)O (configuration not stated)
- IC50 (Alpha-crystallin B chain): 20 µM

Structure (SMILES): C[C@H](CCC(=O)O)[C@H]1CC[C@H]2[C@@H]3CC[C@@H]4C[C@H](O)CC[C@]4(C)[C@H]3CC[C@]12C [LITHOCHOLIC ACID]
- Kd [7]: 15 µM

Structure (SMILES): CCC(CC)c1ccc(S(=O)(=O)Nc2cc(Sc3nc[nH]n3)c(O)c3ccccc23)cc1
- Kd (Keap1/Nrf2): 2.9 µM

Structure (SMILES): Cc1ccccc1OCc1nnc(SCC(N)=O)[nH]1
- IC50 (Annexin A2/S100-A10): 24 µM
